Data: the NIST ThermoML archive (doi:10.1016/j.jct.2014.05.020)

Test: excess molar enthalpy (molar enthalpy of mixing); xn = mol fraction of the nth substance listed
Conditions: Flow calorimetry

C1CCCCC1 [cyclohexane] + c1ccccc1
Conditions	excess molar enthalpy [kcal/mol]
498.2 K, 15000 kPa, Liquid, x2 = 0.9161	0.0262
523.2 K, 5000 kPa, Liquid, x2 = 0.1189	0.0458
523.2 K, 5000 kPa, Liquid, x2 = 0.1765	0.0644
523.2 K, 5000 kPa, Liquid, x2 = 0.233	0.0798
523.2 K, 5000 kPa, Liquid, x2 = 0.3424	0.101
523.2 K, 5000 kPa, Liquid, x2 = 0.4475	0.112
523.2 K, 5000 kPa, Liquid, x2 = 0.5485	0.114
523.2 K, 5000 kPa, Liquid, x2 = 0.6457	0.105
523.2 K, 5000 kPa, Liquid, x2 = 0.7392	0.0877
523.2 K, 5000 kPa, Liquid, x2 = 0.8293	0.0619
523.2 K, 5000 kPa, Liquid, x2 = 0.8732	0.0463
523.2 K, 5000 kPa, Liquid, x2 = 0.9162	0.0303
523.2 K, 5000 kPa, Liquid, x2 = 0.9585	0.0173
523.2 K, 15000 kPa, Liquid, x2 = 0.1188	0.0387
523.2 K, 15000 kPa, Liquid, x2 = 0.1763	0.0539
523.2 K, 15000 kPa, Liquid, x2 = 0.2327	0.0667
523.2 K, 15000 kPa, Liquid, x2 = 0.3421	0.0855
523.2 K, 15000 kPa, Liquid, x2 = 0.4471	0.0946
523.2 K, 15000 kPa, Liquid, x2 = 0.5482	0.0951
523.2 K, 15000 kPa, Liquid, x2 = 0.6454	0.088
523.2 K, 15000 kPa, Liquid, x2 = 0.7389	0.0732
523.2 K, 15000 kPa, Liquid, x2 = 0.8291	0.0516
523.2 K, 15000 kPa, Liquid, x2 = 0.873	0.0391
523.2 K, 15000 kPa, Liquid, x2 = 0.9161	0.025
523.2 K, 15000 kPa, Liquid, x2 = 0.9584	0.0128
523.2 K, 25000 kPa, Liquid, x2 = 0.1187	0.0369
523.2 K, 25000 kPa, Liquid, x2 = 0.1762	0.0516
523.2 K, 25000 kPa, Liquid, x2 = 0.2325	0.0643
523.2 K, 25000 kPa, Liquid, x2 = 0.3418	0.0817
523.2 K, 25000 kPa, Liquid, x2 = 0.4469	0.0899
523.2 K, 25000 kPa, Liquid, x2 = 0.5479	0.0903
523.2 K, 25000 kPa, Liquid, x2 = 0.6451	0.0836
523.2 K, 25000 kPa, Liquid, x2 = 0.7388	0.0694
523.2 K, 25000 kPa, Liquid, x2 = 0.829	0.0483
523.2 K, 25000 kPa, Liquid, x2 = 0.8729	0.0367
523.2 K, 25000 kPa, Liquid, x2 = 0.916	0.0234
523.2 K, 25000 kPa, Liquid, x2 = 0.9584	0.0123
573.2 K, 15000 kPa, Fluid (supercritical or subcritical phases), x2 = 0.1188	0.0358
573.2 K, 15000 kPa, Fluid (supercritical or subcritical phases), x2 = 0.1763	0.0503
573.2 K, 15000 kPa, Fluid (supercritical or subcritical phases), x2 = 0.2327	0.0611
573.2 K, 15000 kPa, Fluid (supercritical or subcritical phases), x2 = 0.3421	0.0788
573.2 K, 15000 kPa, Fluid (supercritical or subcritical phases), x2 = 0.4471	0.088
573.2 K, 15000 kPa, Fluid (supercritical or subcritical phases), x2 = 0.5482	0.0891
573.2 K, 15000 kPa, Fluid (supercritical or subcritical phases), x2 = 0.6454	0.0821
573.2 K, 15000 kPa, Fluid (supercritical or subcritical phases), x2 = 0.7389	0.0687
573.2 K, 15000 kPa, Fluid (supercritical or subcritical phases), x2 = 0.8291	0.0493
573.2 K, 15000 kPa, Fluid (supercritical or subcritical phases), x2 = 0.873	0.0361
573.2 K, 15000 kPa, Fluid (supercritical or subcritical phases), x2 = 0.9161	0.025
573.2 K, 15000 kPa, Fluid (supercritical or subcritical phases), x2 = 0.9584	0.012
573.2 K, 25000 kPa, Fluid (supercritical or subcritical phases), x2 = 0.1187	0.0333
573.2 K, 25000 kPa, Fluid (supercritical or subcritical phases), x2 = 0.1762	0.0474
573.2 K, 25000 kPa, Fluid (supercritical or subcritical phases), x2 = 0.2325	0.0572
573.2 K, 25000 kPa, Fluid (supercritical or subcritical phases), x2 = 0.3418	0.0738
573.2 K, 25000 kPa, Fluid (supercritical or subcritical phases), x2 = 0.4469	0.0825
573.2 K, 25000 kPa, Fluid (supercritical or subcritical phases), x2 = 0.5479	0.0834
573.2 K, 25000 kPa, Fluid (supercritical or subcritical phases), x2 = 0.6451	0.0767
573.2 K, 25000 kPa, Fluid (supercritical or subcritical phases), x2 = 0.7388	0.0641
573.2 K, 25000 kPa, Fluid (supercritical or subcritical phases), x2 = 0.829	0.045
573.2 K, 25000 kPa, Fluid (supercritical or subcritical phases), x2 = 0.8729	0.0332
573.2 K, 25000 kPa, Fluid (supercritical or subcritical phases), x2 = 0.916	0.02
573.2 K, 25000 kPa, Fluid (supercritical or subcritical phases), x2 = 0.9584	0.00954
